Test results as given in publication PMC8208785, “Therapeutic efficacy of novel memantine nitrate MN‐08 in animal models of Alzheimer’s disease” (Aging Cell, 2021).
Read-outs that look alike come from different tables or passages of the source.

How the values were obtained:
[1] = test system: APP/PS1 mice; test: Western blotting and NeuN staining in hippocampi of APP/PS1 mice (Tau, synapse and apoptosis proteins); assay type: in vivo; conditions: MN‐08 6 mg/kg
Procedure: APP/PS1 transgenic mice were purchased from Jackson Laboratory and reproduced in the Shenzhen Center for Disease Control and Prevention (Shenzhen, China). Two‐month‐old APP/PS1 mice were divided into four groups: (1) APP/PS1 + Vehicle group; (2) APP/PS1 + MN‐08 (6 mg/kg) group; (3) APP/PS1 + Memantine (Mem, 5 mg/kg) group; (4) APP/PS1 + Donepezil (Done, 1.3 mg/kg, once daily) group; (5) Two‐month‐old C57BL/6J mice as a control group. The APP/PS1 mice were administered drugs twice a day (Done, once daily) by gastric gavage from ages 2 to 8 months for 6 months successively. Control and vehicle groups received equal volumes of saline.
Immunohistochemistry and immunofluorescence staining were carried out as previously described (Zhang et al., 2017). Coronal brain sections were incubated with […] sodium citrate (pH 6.0) and heated for 15 min. After cooling to room temperature, the sections were immersed in 3 % H2O2 for 10 min followed by blocking solution (10 % fetal bovine serum, 1 % bovine serum albumin and 0.1 % Triton X-100) for 1 h. Sections were then incubated with the following appropriate primary antibodies overnight at 4°C: anti-Aβ1-42 antibody (#ab10148, 1:1000, Abcam), anti-Aβ1-16 antibody (#803014, 1:1000, Abcam) and anti-NeuN antibody (#ab177487, 1:400, Abcam). After rinsing 3 times, the sections of immunohistochemistry staining were incubated with biotin-conjugated universal secondary antibody (Gene Tech, Shanghai, China). For immunofluorescence staining, the sections were incubated with appropriate secondary antibodies for 2 h at room temperature. Image J software was used to analyze the fluorescence intensity and cell counting from six slices at similar coronal positions of each animal; this was performed by a viewer blinded to the experimental group.
Western blotting analysis was performed as previously described with minor modifications (Huang, Li, & Nan, 2017). Proteins were extracted from hippocampal tissue and their concentrations determined by the BCA protein assay kit (Fdbio science, Hangzhou, China). The protein (20 μg) was separated on a 12% SDS-PAGE gel and then transferred to PVDF membranes. The membranes were blocked using 5 % nonfat dry milk for 2 h. The protein blots were incubated with the corresponding primary antibodies against p-Akt (#4060, 1:1000, Cell Signaling Technology), Akt (#4685, 1:1000, Cell Signaling Technology), BACE1 (#5606, 1:1000, Cell Signaling Technology), PS1 (#5643, 1:1000, Cell Signaling Technology), p-GSK3β (#5558, 1:1000, Cell Signaling Technology), GSK3β (#12456, 1:1000, Cell Signaling Technology), Bcl-2 (#3498, 1:1000, Cell Signaling Technology), Bax (#5023, 1:1000, Cell Signaling Technology), Cleaved caspase-3 (#9661, 1:1000, Cell Signaling Technology), Caspase-3 (#9662, 1:1000, Cell Signaling Technology), ADAM10 (#14194, 1:1000, Cell Signaling Technology), APP (#ab241592, 1:1000, Abcam), sAPPα (#ab126723, 1:1000, Abcam), NEP (#ab216341, 1:1000, Abcam), Synapsin I (#ab64581, 1:1000, Abcam), Synapsin II (#ab76494, 1:1000, Abcam), NR2A (#ab124913, 1:2000, Abcam), PSD95 (#ab18258, 1:1000, Abcam), Synaptophysin (#ab32127, 1:1000, Abcam), IDE (#ab133561, 1:1000, Abcam), Drebin (#ab178408, 1:1000, Abcam) and Tau-5 (#ab80579, 1:2000, Abcam) overnight at 4°C. After washing 3 times, the membranes were incubated with the respective HRP-conjugated secondary antibody. […] Quantitative analysis of protein bands was conducted by the Carestream system (Carestream Health, Inc, USA).

[2] = pharmacokinetic analysis of MN-08 in rats; assay type: in vivo; conditions: both sexes, rat, plasma, po; for Cmax: read-out: Cmax, peak concentration; for half-life: read-out: T1/2, mean terminal half-life (converted); for Tmax: read-out: Tmax, mean time to peak
Procedure: Healthy adult rats were cannulated under anesthesia one day before dosing, then randomly categorized into 3 groups (3 males and 3 females for each group): (1) MN-08 (3 mg/kg) group; (2) MN-08 (12 mg/kg) group; (3) MN-08 (24 mg/kg) group. Following single administration of MN-08 by gastric gavage, plasma samples (approximately 150 μL) were collected at different time points (Pre-dose and 0.25, 0.5, 1, 2, 4, 8, 12, 24 h after dose). The blood samples were placed in heparinized tubes and centrifuged at 3000 rpm for 10 min. The supernatant plasma was stored at -80°C until analysis. The concentration of MN-08 in blood samples was analyzed by the LC-MS/MS method as previously described (Tian et al., 2016).

[3] = brain exposure of MN-08 in rats; assay type: in vivo, SD rats; conditions: for concentration at 0.5 h / concentration at 1 h / concentration at 24 h: both sexes, Sprague-Dawley, rat, oral
Procedure: Bio-distribution studies were carried out in healthy adult rats (3 males and 3 females). All rats were administered MN-08 at a single dose of 12 mg/kg by gastric gavage. Brain and plasma were collected at 0.5, 1 and 24 h post dosing. Tissue samples were homogenized and then centrifuged at 12000 rpm for 10 min. The supernatants were injected into the LC-MS/MS system for analysis of MN-08 concentration according to the method previously described (Tian et al., 2016).

[4] = test system: normal rats; design: method as in Luo et al., 2019; conditions: ref Luo et al., 2019; cited from earlier work
[5] = test system: experimental subarachnoid hemorrhage models; design: method as in Luo et al., 2019; conditions: ref Luo et al., 2019; cited from earlier work
[6] = single intragastric dose 3 mg/kg
[7] = single intragastric dose 12 mg/kg
[8] = single intragastric dose 24 mg/kg

Question: With CCC12CC3CC(N)(C1)CC(CO[N+](=O)[O-])(C3)C2 (stereo not drawn) [MN‐08] as the compound, how does the “Tau hyperphosphorylation in the hippocampi” value ([1]; prevention study) read?
Answer: consistently suppressed

Question: And the “expression of synapse‐related proteins (SYP, PSD95, SYN I, SYN II, drebrin)” value ([1]; prevention study)?
Answer: reversal of the depressed expression

Question: And the “neuronal loss in the hippocampus (NeuN)” value ([1]; prevention study)?
Answer: prevented

Question: What about the “expression ratio of Bcl‐2/Bax” value ([1]; hippocampi) of the same compound?
Answer: upregulating

Question: What about the “expression ratio of cleaved Caspase‐3 to Caspase‐3” value ([1]; hippocampi) of the same compound?
Answer: downregulating

Question: What about the Cmax [2, 6] of the same compound?
Answer: 97.5 ng/mL

Question: What about the half-life [2, 6] of the same compound?
Answer: 316 min

Question: What about the Tmax [2, 6] of the same compound?
Answer: 1.08 h

Question: What about the Cmax [2, 7] of the same compound?
Answer: 399 ng/mL

Question: What about the half-life [2, 7] of the same compound?
Answer: 409 min

Question: What about the Tmax [2, 7] of the same compound?
Answer: 1.83 h

Question: And the Cmax [2, 8]?
Answer: 674 ng/mL

Question: And the half-life [2, 8]?
Answer: 409 min

Question: And the Tmax [2, 8]?
Answer: 4 h

Question: What about the “concentration in brain tissue relative to plasma” value [3] of the same compound?
Answer: much higher than that in the plasma

Question: What about the “blood‐brain barrier penetration” value ([3]; 12 mg/kg gastric gavage) of the same compound?
Answer: readily penetrates the blood‐brain barrier

Question: And the “mean concentration in brain” value ([3]; 12 mg/kg gastric gavage, 0.5 h, 12 mg/kg)?
Answer: 5793 ± 1033 ng/g

Question: And the “mean concentration in brain” value ([3]; 12 mg/kg gastric gavage, 1 h, 12 mg/kg)?
Answer: 10952 ± 3236 ng/g

Question: And the “mean concentration in brain” value ([3]; 12 mg/kg gastric gavage, 24 h, 12 mg/kg)?
Answer: 1661 ± 183.4 ng/g

Question: What about the concentration at 0.5 h ([3]; brain, 12 mg/kg gastric gavage, 0.5 h, read-out: mean concentration in brain) of the same compound?
Answer: 5790 ng/g

Question: What about the concentration at 1 h ([3]; brain, 12 mg/kg gastric gavage, 1 h, read-out: mean concentration in brain) of the same compound?
Answer: 11000 ng/g

Question: And the concentration at 24 h ([3]; brain, 12 mg/kg gastric gavage, 24 h, read-out: mean concentration in brain)?
Answer: 1660 ng/g

Question: And the concentration at 0.5 h ([3]; 12 mg/kg, 0.5 h, assuming 1 g brain tissue is 1 ml, read-out: concentration in the brain)?
Answer: ~19.9 µM

Question: And the concentration at 1 h ([3]; 12 mg/kg, 1 h, assuming 1 g brain tissue is 1 ml, read-out: concentration in the brain)?
Answer: ~37.7 µM

Question: What about the concentration at 24 h ([3]; 12 mg/kg, 24 h, assuming 1 g brain tissue is 1 ml, read-out: concentration in the brain) of the same compound?
Answer: ~5.71 µM

Question: What about the concentration at 0.5 h ([3]; plasma, 12 mg/kg gastric gavage, 0.5 h, read-out: mean concentration in plasma) of the same compound?
Answer: 781 ± 99 ng/mL

Question: What about the concentration at 1 h ([3]; plasma, 12 mg/kg gastric gavage, 1 h, read-out: mean concentration in plasma) of the same compound?
Answer: 726 ± 141 ng/mL

Question: What about the concentration at 24 h ([3]; plasma, 12 mg/kg gastric gavage, 24 h, read-out: mean concentration in plasma) of the same compound?
Answer: 73.4 ± 23.8 ng/mL

Question: What about the blood pressure [4] of the same compound?
Answer: does not, however, change

Question: What about the cerebral blood flow [5] of the same compound?
Answer: increase
